EC50 data for 30 compounds are collected here from patent publication US12037344B2, “NLRP3 modulators” (INNATE TUMOR IMMUNITY, INC., priority 2018, dated 2024).

The test system of one assay is THP-1 cells. The experiment in a line: Measurement of IL-1β production, hTRF protocol (second alternative procedure), THP-1 cells. It counts as cell-based, human. As to conditions: Homo sapiens, THP-1, IL-1β production, human; read-out: NLRP3 hILIB EC50. Summed up:
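Compounds, dilution series starting at a final 10 μM, were incubated 2 hours at 37° C with PMA-differentiated THP-1 cells (50 ng/ml overnight; 50,000 cells/well, 2% FBS RPMI). Released IL-1β quantified in supernatant by hTRF kit with 1:40 antibody dilution, 4° C overnight, 665/615 nm ratio.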

A further assay addresses T1, TLR7 (Homo sapiens, UniProt Q9NYK1).
T1 construct: human HEK-Blue cells co-expressing a TLR7 or TLR8 gene
T1 sequence (Q9NYK1 27-1049): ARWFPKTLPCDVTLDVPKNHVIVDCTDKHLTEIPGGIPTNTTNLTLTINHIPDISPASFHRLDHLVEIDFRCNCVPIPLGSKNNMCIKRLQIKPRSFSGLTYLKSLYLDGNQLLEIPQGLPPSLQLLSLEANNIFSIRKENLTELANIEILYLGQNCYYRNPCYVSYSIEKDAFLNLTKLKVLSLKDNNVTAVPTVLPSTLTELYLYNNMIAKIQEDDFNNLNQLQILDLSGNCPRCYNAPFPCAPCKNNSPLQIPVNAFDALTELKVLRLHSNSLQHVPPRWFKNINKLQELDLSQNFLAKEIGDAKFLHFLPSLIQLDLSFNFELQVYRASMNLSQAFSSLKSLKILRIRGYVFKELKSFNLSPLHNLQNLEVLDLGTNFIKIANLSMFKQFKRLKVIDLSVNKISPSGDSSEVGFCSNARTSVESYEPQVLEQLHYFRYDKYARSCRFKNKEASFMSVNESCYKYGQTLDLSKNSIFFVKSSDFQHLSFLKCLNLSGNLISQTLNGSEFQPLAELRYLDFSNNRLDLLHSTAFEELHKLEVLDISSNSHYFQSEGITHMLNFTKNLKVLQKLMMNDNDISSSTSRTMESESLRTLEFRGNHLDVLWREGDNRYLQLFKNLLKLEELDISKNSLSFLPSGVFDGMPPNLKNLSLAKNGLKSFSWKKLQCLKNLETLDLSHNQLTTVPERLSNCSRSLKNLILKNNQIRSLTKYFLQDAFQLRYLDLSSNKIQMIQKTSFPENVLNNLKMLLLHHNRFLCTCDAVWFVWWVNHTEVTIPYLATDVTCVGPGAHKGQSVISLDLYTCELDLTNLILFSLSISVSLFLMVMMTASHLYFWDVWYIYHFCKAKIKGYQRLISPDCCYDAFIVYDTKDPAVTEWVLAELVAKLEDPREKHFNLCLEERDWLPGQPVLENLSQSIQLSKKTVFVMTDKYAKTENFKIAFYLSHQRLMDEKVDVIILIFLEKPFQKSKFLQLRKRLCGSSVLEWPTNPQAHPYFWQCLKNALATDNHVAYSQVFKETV
The experiment in a line: In vitro human TLR7 binding reporter assay (HEK-Blue, NF-kB/AP1-inducible SEAP). It counts as cell-based. Particulars: activity range class, read-out: TLR7 Agonist EC50. The method in brief: (§1)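 Cells are seeded and grown for 24 h. Compounds or DMSO are then added and incubated 18 h at 37 °C. Quanti-Blue is added, and SEAP is read after thirty minutes. EC50 values are normalized, with RLU from 50 μM reference standard setting 100% Ymax.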
(In a reporter assay the amount or activity of a reporter protein is the signal.)

The target in a further assay is T2, TLR8 (Homo sapiens, UniProt Q9NR97).
T2 construct: human HEK-Blue cells co-expressing a TLR7 or TLR8 gene
T2 sequence (Q9NR97 27-1041): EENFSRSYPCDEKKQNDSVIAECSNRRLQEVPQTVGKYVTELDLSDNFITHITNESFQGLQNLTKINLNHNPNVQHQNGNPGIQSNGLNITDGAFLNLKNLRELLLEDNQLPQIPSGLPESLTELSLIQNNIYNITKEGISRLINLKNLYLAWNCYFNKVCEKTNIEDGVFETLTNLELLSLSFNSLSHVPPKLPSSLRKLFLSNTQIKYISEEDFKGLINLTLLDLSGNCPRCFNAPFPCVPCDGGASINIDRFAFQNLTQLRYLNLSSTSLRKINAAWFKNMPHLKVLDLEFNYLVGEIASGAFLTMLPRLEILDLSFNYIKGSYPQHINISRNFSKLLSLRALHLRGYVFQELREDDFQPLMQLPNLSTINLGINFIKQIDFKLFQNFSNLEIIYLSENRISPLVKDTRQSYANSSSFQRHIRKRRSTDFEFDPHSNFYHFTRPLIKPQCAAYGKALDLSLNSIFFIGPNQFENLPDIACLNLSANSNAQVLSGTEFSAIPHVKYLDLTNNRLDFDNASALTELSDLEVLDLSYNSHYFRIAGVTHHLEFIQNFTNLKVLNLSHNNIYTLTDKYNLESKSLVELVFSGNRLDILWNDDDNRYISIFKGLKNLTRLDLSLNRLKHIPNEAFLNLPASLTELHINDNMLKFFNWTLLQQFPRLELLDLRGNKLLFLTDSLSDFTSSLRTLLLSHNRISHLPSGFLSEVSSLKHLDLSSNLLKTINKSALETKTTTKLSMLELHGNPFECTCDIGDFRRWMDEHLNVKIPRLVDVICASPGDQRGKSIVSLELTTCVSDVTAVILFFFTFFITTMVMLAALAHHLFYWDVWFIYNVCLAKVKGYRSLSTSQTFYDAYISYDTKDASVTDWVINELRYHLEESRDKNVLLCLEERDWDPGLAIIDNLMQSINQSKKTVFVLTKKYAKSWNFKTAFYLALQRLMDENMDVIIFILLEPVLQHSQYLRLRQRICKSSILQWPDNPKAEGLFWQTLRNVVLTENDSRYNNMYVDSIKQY
The experiment in a line: In vitro human TLR8 binding reporter assay (HEK-Blue, NF-kB/AP1-inducible SEAP). It counts as cell-based. As to conditions: activity range class, read-out: TLR8 Agonist EC50. Summed up: as §1

Consider `CS(=O)(=O)NCCn1cc2c(N)nc3cc(-c4cc[nH]n4)ccc3c2n1` [Example 206, N-(2-(4-amino-7-(1H-pyrazol-3-yl)-2H-pyrazolo[4,3-c]quinolin-2-yl)ethyl)methanesulfonamide], for which the EC50 is 0.26 µM with THP-1 cells, over 100 µM on TLR7 and over 100 µM on TLR8.
As to `COCCn1cc2c(N)nc3cc(-c4cc[nH]n4)ccc3c2n1` [Example 207, 2-(2-methoxyethyl)-7-(1H-pyrazol-3-yl)-2H-pyrazolo[4,3-c]quinolin-4-amine], the figures for the EC50 in the assay with THP-1 cells, at TLR7 and at TLR8 were 0.14 µM, over 100 µM and over 100 µM, respectively.
As to `COCCn1ncc2c(N)nc3cc(-c4cc[nH]n4)ccc3c21` [Example 208, 1-(2-methoxyethyl)-7-(1H-pyrazol-3-yl)-1H-pyrazolo[4,3-c]quinolin-4-amine], the EC50 in the assay with THP-1 cells was 0.49 µM; at TLR7, over 100 µM; on TLR8 it was over 100 µM.
For `Nc1nc2cc(-c3cc[nH]n3)ccc2c2nn(CCO)cc12` [Example 209, 2-(4-amino-7-(1H-pyrazol-3-yl)-2H-pyrazolo[4,3-c]quinolin-2-yl)ethan-1-ol], the EC50 with THP-1 cells is 0.19 µM; on TLR7 it was over 100 µM; at TLR8, over 100 µM.
`CS(=O)(=O)CCCn1cc2c(N)nc3cc(-c4cc[nH]n4)ccc3c2n1` [Example 211]: the figures for the EC50 in the assay on THP-1 cells, on TLR7 and at TLR8 were 0.63 µM, over 100 µM and over 100 µM, respectively.
As to `CS(=O)(=O)CCCn1ncc2c(N)nc3cc(-c4cc[nH]n4)ccc3c21` [Example 212], the EC50 in the assay on THP-1 cells was 4.37 µM; on TLR7, over 100 µM; on TLR8 it was over 100 µM.
With `Nc1nc2cc(-c3cc[nH]n3)ccc2c2nn(CCCN3CCOCC3)cc12` [Example 213], the figures for the concentration giving a half-maximal response (EC50) in the assay on THP-1 cells, at TLR7 and at TLR8 were 3.21 µM, over 100 µM and over 100 µM, respectively.
Turning to `Nc1nc2cc(-c3cc[nH]n3)ccc2c2c1cnn2CCCN1CCOCC1` [Example 214], the half-maximal effective concentration (EC50) with THP-1 cells is 4.55 µM; at TLR7 it was over 100 µM; at TLR8, over 100 µM.
`Nc1nc2cc(-c3cc[nH]n3)ccc2c2nn(CCCO)cc12` [Example 215]: the values for the EC50 in the assay with THP-1 cells, on TLR7 and at TLR8 were 0.4 µM, over 100 µM and over 100 µM, respectively.
As to `Nc1nc2cc(-c3cc[nH]n3)ccc2c2c1cnn2CCCO` [Example 216], the EC50 with THP-1 cells was 3.04 µM; at TLR7, over 100 µM; at TLR8 it was over 100 µM.
On to `Nc1nc2cc(-c3cc[nH]n3)ccc2c2c1cnn2CCO` [Example 217], for which the half-maximal effective concentration (EC50) is 1.17 µM in the assay with THP-1 cells, over 100 µM on TLR7 and over 100 µM on TLR8.
As for `COCCCCn1cc2c(N)nc3cc(-c4cc[nH]n4)ccc3c2n1` [Example 218], the EC50 with THP-1 cells was 0.2 µM; at TLR7, over 100 µM; at TLR8, over 100 µM.
Turning to `COCCCCn1ncc2c(N)nc3cc(-c4cc[nH]n4)ccc3c21` [Example 219], the EC50 with THP-1 cells was 0.3 µM; at TLR7, over 100 µM; at TLR8, over 100 µM.
With `CCCn1cc2c(N)nc3cc(-c4cc[nH]n4)ccc3c2n1` [Example 220], the EC50 is 0.12 µM in the assay with THP-1 cells, over 100 µM on TLR7 and over 100 µM at TLR8.
For the compound `CCCn1ncc2c(N)nc3cc(-c4cc[nH]n4)ccc3c21` [Example 221], the concentration giving a half-maximal response (EC50) in the assay with THP-1 cells is 0.21 µM; at TLR7 it was over 100 µM; on TLR8 it was over 100 µM.
With `CCOCCn1cc2c(N)nc3cc(-c4cc[nH]n4)ccc3c2n1` [Example 222], the figures for the EC50 with THP-1 cells, on TLR7 and on TLR8 were 0.27 µM, over 100 µM and over 100 µM, respectively.
Consider `CCOCCn1ncc2c(N)nc3cc(-c4cc[nH]n4)ccc3c21` [Example 223], for which the EC50 with THP-1 cells was 0.45 µM; at TLR7, over 100 µM; on TLR8, over 100 µM.
On to `Nc1nc2cc(-c3cc[nH]n3)ccc2c2nn(CC(F)F)cc12` [Example 224], for which the results for the EC50 in the assay on THP-1 cells, at TLR7 and on TLR8 were 0.14 µM, over 100 µM and over 100 µM, respectively.
With `Nc1nc2cc(-c3cc[nH]n3)ccc2c2c1cnn2CC(F)F` [Example 225], the EC50 in the assay on THP-1 cells is 0.2 µM; at TLR7 it was over 100 µM; at TLR8 it was over 100 µM.
Regarding `Cc1cc(Cn2cc3c(N)nc4cc(-c5cc[nH]n5)ccc4c3n2)no1` [Example 226], the figures for the EC50 with THP-1 cells, on TLR7 and at TLR8 were 0.44 µM, over 100 µM and over 100 µM, respectively.
Take `Nc1nc2cc(-c3cc[nH]n3)ccc2c2c1cnn2CCc1ccccn1` [Example 227]: the EC50 with THP-1 cells is 1.81 µM; on TLR7, over 100 µM; on TLR8, over 100 µM.
For `COCCCn1ncc2c(N)nc3cc(-c4cc[nH]n4)ccc3c21` [Example 228], the results for the EC50 in the assay with THP-1 cells, on TLR7 and at TLR8 were 0.3 µM, over 100 µM and over 100 µM, respectively.
On to `Nc1nc2cc(-c3cc[nH]n3)ccc2c2nn(CC3CCCO3)cc12` (stereo not drawn) [Example 229], for which the EC50 in the assay on THP-1 cells was 0.08 µM; at TLR7 it was over 100 µM; at TLR8, over 100 µM.
Take `Nc1nc2cc(-c3cc[nH]n3)ccc2c2c1cnn2CC1CCCO1` (stereo not drawn) [Example 230]: the EC50 with THP-1 cells was 0.87 µM; on TLR7, over 100 µM; at TLR8 it was over 100 µM.
Regarding `CN1CCOC(Cn2ncc3c(N)nc4cc(-c5cc[nH]n5)ccc4c32)C1` (stereo not drawn) [Example 231], the results for the EC50 in the assay with THP-1 cells, at TLR7 and on TLR8 were 1.21 µM, over 100 µM and over 100 µM, respectively.
In the case of `C[C@H](CO)Cn1ncc2c(N)nc3cc(-c4cc[nH]n4)ccc3c21` [Example 232], the EC50 is 1.87 µM in the assay on THP-1 cells, over 100 µM at TLR7 and over 100 µM at TLR8.
Take `Nc1nc2cc(-c3cc[nH]n3)ccc2c2c1cnn2CCOCCO` [Example 233]: the EC50 in the assay with THP-1 cells was 1.44 µM; on TLR7, over 100 µM; on TLR8 it was over 100 µM.
On to `Nc1nc2cc(-c3cc[nH]n3)ccc2c2nn(CC(O)CO)cc12` (stereo not drawn) [Example 234], for which the 50% effective concentration (EC50) in the assay with THP-1 cells was 0.56 µM; at TLR7 it was over 100 µM; on TLR8, over 100 µM.
With `Nc1nc2cc(-c3cc[nH]n3)ccc2c2c1cnn2CC(O)CO` (stereo not drawn) [Example 235], the results for the EC50 with THP-1 cells, on TLR7 and on TLR8 were 12.5 µM, over 100 µM and over 100 µM, respectively.
As to `Nc1nc2cc(-c3cc[nH]n3)ccc2c2nn(C3CCOCC3)cc12` [Example 236], the results for the half-maximal effective concentration (EC50) in the assay with THP-1 cells, on TLR7 and at TLR8 were 0.79 µM, over 100 µM and over 100 µM, respectively.

In general, EC50 refers to the concentration at which the effect is half-maximal.
